Experimental data reported in patent US20210208130A1, “ASSAYS FOR CELL-BASED THERAPIES OR TREATMENTS” (The Regents of the University of California, priority 2018, published 2021).

System: Human Retinoblastoma (hRB) Y79 (ATCC HTB-18) cells
Assay: Fluorescence-based (CellTiter-Blue, resazurin) cell viability potency assay with sodium butyrate insult
Conditions: 2, 4, 8 mM sodium butyrate; 72 hours incubation
From the text: In the following examples, Human Retinoblastoma (hRB) Y79 (ATCC® HTB-18™) cells were expanded and maintained for use by culturing in ATCC®-formulated RPMI-1640 medium supplemented with 20% fetal bovine serum. The cells were maintained according to ATCC® recommendations. Human retinal progenitor cells (hRPCs) and human retinal pigment epithelium cells (hRPE cells) were isolated from 18-20 week human fetuses and propagated in standard medium (SM) comprising Advanced DMEM/F12 with 1×N−2 supplement, 1×GlutaMax-1, 20 ng/ml human FGF-basic protein and 20 ng/ml human EGF protein.
In the following experiments, conditioned medium (CM) was collected from hRPCs, hRB cells or hRPE grown in SM for 48 hours (with replacement of the SM after 24 hours). Cells were harvested and counted after each CM collection.
First, 12.5×10^3, 2.5×10^4, 5.0×10^4, 1.0×10^5 and 2.0×10^5 Human Retinoblastoma (hRB) Y79 (ATCC® HTB-18™) cells were plated in five separate wells of a 96 well assay plate and incubated in 50 μl SM. […] Resorufin is highly fluorescent, meaning that the fluorescence signal generated can be used to determine the viability of the cells incubated with Resazurin.
The fluorescence of each well was measured after incubation with resazurin. Fluorescence signals were read at an excitation wavelength of 520 nm and an emission wavelength of 580-640 nm. […]

Compound: CCCC(=O)[O-].[Na+] [sodium butyrate]
- fluorescence signal (cell proliferation and viability) with higher concentrations of sodium butyrate: decreased fluorescence signals
